Values after ≈ are worked out from the molar mass of the structure shown. Where two headings read alike, the source gives them in different places.
Legend:
MOLT-3 cells = assay: Toxicity in MOLT-3 cells, changes in cell morphology by microscopic examination; format: cell-based, human
Description: (§1) Two human immature T-lymphoblastoid cell lines were used: HSB-2, obtained from American Type Culture Collection (No. CCL 120.1); and MOLT-3, purchased from ABI Technologies (Columbia, Md., USA). The cells were propagated in RPMI 1640 medium supplemented with 10% fetal calf serum, 2 mM L-glutamine, 0.075% sodium bicarbonate and gentamycin. The cultures were incubated at 37° C. in a humidified and CO2 controlled incubator.
(§2) The cells were incubated at 37° C. and subcultivated on days four and seven by two-fold dilution in medium containing fresh test compound or control. On days 10–14, the cells were examined microscopically to score the viral cytopathic effect (CPE) visible by the appearance of large ballooning cells and drug toxicity. Then total DNA was extracted from the infected cells with the QIAamp Blood Kit (Qiagen, Germany), using the manufacturer's instructions, and the DNA extracts were frozen at −20° C. until further analysis.
The antiviral IC50 was calculated by extrapolation and defined as the compound concentration that produced 50% inhibition of virus replication as determined by microscopic examination or quantitation of viral DNA. Toxicity of the compounds was expressed as minimum cytotoxic concentration (MCC), or the lowest compound concentration that caused a microscopically visible alteration in cellular morphology.

[1] = test system: HHV-6 (Z-29 strain, variant B); assay: Anti-HHV-6 activity in MOLT-3 cells (CPE and viral DNA slot blot); format: cell-based, human herpes virus type 6 (HHV-6); settings: Homo sapiens
Description: as §1
The GS strain of HHV-6 variant A was kindly provided by Dr. R. Gallo, while the Z-29 strain of HHV-6 variant B was obtained from ABI Technologies (Columbia, Md., USA). For preparation of virus stocks, suspensions of HSB-2 cells infected with strain GS, or MOLT-3 cells infected with strain Z-29, were collected at 10–12 days post infection, when the cytopathic effect (CPE) was maximal and cells were >90% virus positive (as determined by immunofluorescence detection of HHV-6 antigens). Since the titer of virus released in culture supernatant was insufficient, virus stocks were used as whole cell suspensions, which were relatively stable when kept in aliquots at −80° C.
Stock solutions of the test compounds or of standards were prepared in dimethylsulfoxide or phosphate buffered saline (PBS). Working dilutions for the antiviral assays were prepared by appropriate dilution of the stock solutions in cell culture medium. The antiherpetic drug Foscarnet (PFA, Foscavir® from Astra, Södertälje, Sweden) was used as standard.
On day 0, the GS and Z-29 strains of HHV-6 were inoculated onto HSB-2 cells and MOLT-3 cells, respectively, at a multiplicity of infection of 0.001 CCID50 (50% cell culture infective doses) per cell, and a cell suspension having a cell density of approximately 5×10^6 cells per ml of culture medium. After two hours of virus adsorption at 37° C., the unadsorbed virus was removed by centrifugation and the infected cells were resuspended and transferred to 48-well microtrays containing the test compounds or control in two- to five-fold dilutions. The final cell density of the suspended cells was approximately 0.8×10^6 cells per ml of culture medium.
as §2
A digoxigenin labeled probe specific for strain GS or Z-29, was prepared by PCR reaction in the presence of digoxigenin-dUTP, on a 1-μl aliquot of a DNA extract prepared from infected cells showing manifest CPE. The 5′-3′ primer sequence was GCTAGAACG TATTTGCTGCAGAACG (Seq. Id. No. 1) and […] (Seq. Id. No. 2), delimiting a 259 bp sequence within the U67 gene. The amplified product was separated on agarose gel and extracted from the gel fragment with the QIAquick gel extraction kit (Qiagen, Germany) after which the purified probe was frozen at −20° C.
For quantitation of viral DNA in the infected and drug-treated cell cultures, appropriate aliquots of the total DNA extracts (containing 5 μg of total DNA, as determined spectrophotometrically at 260 nm) were boiled during 10 min, and blotted on a nylon membrane (Hybond-N from Amersham) using a Hoefer slot blot apparatus from Pharmacia (Sweden). After UV cross-linking, the membrane was prehybridized during 30 min at 42° C. with DIG (digoxigenin) easy Hyb solution® (Boehringer Mannheim, Germany). Then, the GS- or Z-29 specific digoxigenin labeled probe was added and allowed to hybridize by incubation overnight at 42° C. […]

HIV-2 (ROD) = assay: Inhibition of HIV-2 syncytium formation in CEM cells; format: cell-based; settings: for EC50: Human immunodeficiency virus 2, CCRF-CEM, read-out: EC50 (ug/ml) HIV-2; for HIV-2 % Protection: protection of CEM cells against virus-induced cytopathicity at the concentration in the previous column
Outline: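 Human T-lymphoblast CEM cells, suspended at roughly 300,000 cells per ml of culture medium, were infected with about 100 CCID50 of HIV-2 (ROD). Aliquots of 100 μl of infected cells were placed in 200 μl microtiter wells holding 100 μl of serial 5-fold compound dilutions, and syncytium formation was scored microscopically four days after infection.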

HIV-1 (IIIB) = assay: microbe, parasite or virus in culture; format: cell-based; settings: for EC50: Human immunodeficiency virus 1, IIIB, CCRF-CEM, read-out: EC50 (ug/ml) HIV-1; for HIV-1 % Protection: protection of CEM cells against virus-induced cytopathicity at the concentration in the previous column
Outline: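 Human T-lymphoblast CEM cells at roughly 300,000 cells per ml were infected with about 100 CCID50 of HIV-1 (IIIB). Then 100 μl of the infected suspension went into 200 μl microtiter wells holding 100 μl of 5-fold serial compound dilutions. Inhibition of syncytium formation was scored microscopically on day four post infection, and protection against virus-induced cytopathicity was recorded.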

Davis strain CMV = assay: Reduction of CMV-induced cytopathicity in HEL cells; format: cell-based, human cytomegalovirus (HCMV); settings: for Antiviral % Inhibition Davis strain CMV: estimate of percent protection at the concentration in the previous column; for EC50: read-out: Antiviral EC50 (ug/ml) Davis strain CMV
Outline: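 Confluent HEL cells were infected with 100 PFU/well CMV for 1–2 h, then washed and kept in MEM with 2% FCS and test compound. EC50 is the concentration cutting virus-induced cytopathicity by 50% versus untreated control at day 7. Where cytotoxicity interfered, percent protection at the stated concentration is given.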

[2] = MOLT-3, read-out: EC50 Based on CPE, MOLT-3 cells, Exp. 1
[3] = MOLT-3, read-out: EC50 Based on CPE, MOLT-3 cells, Exp. 2
[4] = MOLT-3, read-out: EC50 Based on CPE, MOLT-3 cells, Exp. 3
[5] = MOLT-3, read-out: EC50 Based on Viral DMA Detection, MOLT-3 cells, Exp. 1
[6] = MOLT-3, read-out: EC50 Based on Viral DMA Detection, MOLT-3 cells, Exp. 3
[7] = CEM cells, syncytium formation, day four post infection
[8] = HEL cells, virus-induced cytopathicity after seven days
[9] = Human betaherpesvirus 5, HEL, 168 h

Row | EC50 (ug/ml) HIV-2 (HIV-2 (ROD); [7]) | EC50 (ug/ml) HIV-1 (HIV-1 (IIIB); [7]) | Antiviral EC50 (ug/ml) Davis strain CMV (Davis strain CMV; [8]) | Structure (SMILES) | Antiviral % Inhibition Davis strain CMV (Davis strain CMV; HEL cells) | HIV-2 % Protection (HIV-2 (ROD)) | HIV-1 % Protection (HIV-1 (IIIB)) | other results
1 | ≧20 ug/ml | 2.30 µg/mL (≈ 8.77 µM) | 40.0 µg/mL | O=[N+]([O-])c1ccc[n+]([O-])c1SCc1ccccc1 [Compound 146] |  | 37.5% |  | 
2 | 16.0 µg/mL (≈ 63.6 µM) | 9.00 µg/mL (≈ 35.8 µM) | 20.0 µg/mL | [O-][n+]1c(Cl)cccc1SCc1ccccc1 [Compound 149] |  |  |  | 
3 | 20.0 µg/mL (≈ 76.5 µM) | 3.25 µg/mL (≈ 12.4 µM) | >50 µg/mL | Cc1ccc(C)c(CS(=O)(=O)c2ccccn2)c1 [Compound 150] | 20.0% |  |  | 
4 | >20.00 µg/mL | >20 µg/mL | >20 µg/mL | [O-][n+]1cc(Cl)ccc1SCc1ccccc1 [Compound 151] | 20.0% | 0.0% | 0.0% | 
5 | 3.0 µg/mL (≈ 10.1 µM) | 2.10 µg/mL (≈ 7.1 µM) | 11.5 µg/mL | Cc1ccc(C)c(C[S+]([O-])c2ccc(Cl)c[n+]2[O-])c1 (stereo not drawn) [Compound 153] |  |  |  | 
6 | >4 µg/mL | >4 µg/mL | 3.6 µg/mL | N#CC(=Cc1ccccc1)Sc1cccc[n+]1[O-] [Compound 158] |  | 0.0% | 0.0% | 
7 | >20 µg/mL | >20 µg/mL | 10.0 µg/mL | COc1ccc(C=C(C#N)Sc2cccc[n+]2[O-])cc1 [Compound 159] |  | 25.0% | 0.0% | 
8 | >20 µg/mL | >20 µg/mL | 7.0 µg/mL | COc1cc(C=C(C#N)Sc2cccc[n+]2[O-])cc(OC)c1OC [Compound 160] |  | 0.0% | 0.0% | 
9 | >100 µg/mL | 3.25 µg/mL (≈ 12.5 µM) | >50 µg/mL | Cc1ccc(C)c(C(C)[S+]([O-])c2ccccn2)c1 (stereo not drawn) [Compound 163] | 0.0% | 0.0% |  | 

Second part, the molecule before the results:

Row | Structure (SMILES) | EC50 (ug/ml) HIV-2 (HIV-2 (ROD); [7]) | EC50 (ug/ml) HIV-1 (HIV-1 (IIIB); [7]) | Antiviral EC50 (ug/ml) Davis strain CMV (Davis strain CMV; [8]) | Antiviral % Inhibition Davis strain CMV (Davis strain CMV; HEL cells) | HIV-2 % Protection (HIV-2 (ROD)) | HIV-1 % Protection (HIV-1 (IIIB)) | other results
10 | [O-][n+]1ccccc1[S+]([O-])Cc1ccccc1 (stereo not drawn) [Compound 5, 2-(Benzylsulfinyl)-pyridine-N-oxide] |  |  |  | 0.0% |  |  | MIC (concentration causing minimal changes in cell morphology) (MOLT-3 cells; Exp. 1): 100 μg/ml; MIC (concentration causing minimal changes in cell morphology) (MOLT-3 cells; Exp. 2): 100 μg/ml; MIC (concentration causing minimal changes in cell morphology) (MOLT-3 cells; Exp. 3): 100 μg/ml; EC50 [1, 2]: > 100 µg/mL; EC50 [1, 3]: > 200 µg/mL; EC50 [1, 4]: > 100 µg/mL; EC50 [1, 5]: > 100 µg/mL; EC50 [1, 6]: > 100 µg/mL; EC50 (HIV-2 (ROD); [7]): 2.1 µg/mL (≈ 9 µM); EC50 (HIV-1 (IIIB); [7]): 3.4 µg/mL (≈ 14.6 µM); EC50 (Davis strain CMV; Human betaherpesvirus 5, 168 h, HEL cells, virus-induced cytopathicity after seven days): > 50 µg/mL
11 | Cc1ccc(C)c(CSc2ccccn2)c1 [Compound 148, 2-((2,5-dimethylphenyl)methylthio)pyridine] |  |  |  |  |  |  | EC50 (HIV-2 (ROD)): > 20 µg/mL; EC50 (HIV-1 (IIIB)): > 20 µg/mL; EC50 (Davis strain CMV; [9]): 0.4 µg/mL (≈ 1.74 µM)
12 | Cc1ccc(C)c(CSc2ccccn2)c1.Cl [Compound 157] | ≧20 ug/ml | 6.00 µg/mL | >50 µg/mL | 0.0% | 37.5% |  | 
13 | Cc1ccc(C)c(C(C)S(=O)(=O)c2ccccn2)c1 (stereo not drawn) [Compound 161] | >100 µg/mL | 9.50 µg/mL (≈ 34.5 µM) | 38.0 µg/mL |  | 0.0% |  | 
14 | Cc1ccc(C)c(C(C)Sc2cc(C)c3ccccc3n2)c1 (stereo not drawn) [Compound 162, 2-[[1-(2,5dimethylphenyl)ethyl]thio]-4-methyl-Quinoline] |  |  |  |  | 0.0% | 0.0% | EC50 (HIV-2 (ROD)): > 0.16 µg/mL; EC50 (HIV-1 (IIIB)): > 0.8 µg/mL; EC50 (Davis strain CMV; [9]): 1.6 µg/mL (≈ 5.2 µM)
15 | O=C(O)P(=O)(O)O [PFA, Foscarnet, reference compound] |  |  |  |  |  |  | MIC (concentration causing minimal changes in cell morphology) (MOLT-3 cells; Exp. 1): >100 μg/ml; MIC (concentration causing minimal changes in cell morphology) (MOLT-3 cells; Exp. 2): >100 μg/ml; MIC (concentration causing minimal changes in cell morphology) (MOLT-3 cells; Exp. 3): >100 μg/ml; EC50 [1, 2]: 8.9 µg/mL (≈ 70.6 µM); EC50 [1, 3]: 4 µg/mL (≈ 31.7 µM); EC50 [1, 4]: 6.5 µg/mL (≈ 51.6 µM); EC50 [1, 5]: 9.4 µg/mL (≈ 74.6 µM); EC50 ([1]; MOLT-3, read-out: EC50 Based on Viral DMA Detection, MOLT-3 cells, Exp. 2): 8.8 µg/mL (≈ 69.8 µM); EC50 [1, 6]: 9.1 µg/mL (≈ 72.2 µM)
